Results on 1 compound are retold here after publication PMC5218480 (PLoS ONE, 2017).

Each structure is given as a SMILES string.

This experiment deals with MV-4-11 cells. Nature of the experiment: Gene expression microarray analysis (Affymetrix PrimeView) and GSEA. The experiment is classed as cell-based, human. Set-up: RFU PODN (11730768_x_at) / Fold change /veh PODN (11730768_x_at) / RFU LINC00158 (11744669_a_at) / Fold change /veh LINC00158 (11744669_a_at) / RFU DUSP10 (11751237_a_at) / Fold change /veh DUSP10 (11751237_a_at) / RFU ID3 (11757404_x_at) / Fold change /veh ID3 (11757404_x_at) / RFU PLEKHG5 (11737974_s_at) / Fold change /veh PLEKHG5 (11737974_s_at) / RFU LRRC4B (11730491_at) / Fold change /veh LRRC4B (11730491_at) / RFU GIMAP4 (11747438_a_at) / Fold change /veh GIMAP4 (11747438_a_at) / RFU KRT8 (11758183_x_at) / Fold change /veh KRT8 (11758183_x_at) / RFU CNN1 (11734310_a_at) / Fold change /veh CNN1 (11734310_a_at) / RFU VPS37D (11726825_at) / Fold change /veh VPS37D (11726825_at) / RFU C10orf10 (11716522_x_at) / Fold change /veh C10orf10 (11716522_x_at) / RFU KIR2DL2 /// KIR2DL4 /// KIR2DL5A /// KIR2DL5B /// KIR2DS1 /// KIR2DS2 /// KIR2DS3 /// KIR2DS4 /// KIR3DL3 /// KIR3DL3 /// KIR3DS1 (11738374_at) / Fold change /veh KIR2DL2 /// KIR2DL4 /// KIR2DL5A /// KIR2DL5B /// KIR2DS1 /// KIR2DS2 /// KIR2DS3 /// KIR2DS4 /// KIR3DL3 /// KIR3DL3 /// KIR3DS1 (11738374_at) / RFU C1QL1 (11718748_at) / Fold change /veh C1QL1 (11718748_at) / RFU TMPRSS4 (11747572_a_at) / Fold change /veh TMPRSS4 (11747572_a_at) / RFU HAMP (11756126_x_at) / Fold change /veh HAMP (11756126_x_at) / RFU RNFT2 (11725882_a_at) / Fold change /veh RNFT2 (11725882_a_at) / RFU NR4A2 (11747474_a_at) / Fold change /veh NR4A2 (11747474_a_at) / RFU ABCC12 (11746883_a_at) / Fold change /veh ABCC12 (11746883_a_at) / RFU TMEM136 (11760407_x_at) / Fold change /veh TMEM136 (11760407_x_at) / RFU CLDN22 /// WWC2 (11732394_at) / Fold change /veh CLDN22 /// WWC2 (11732394_at) / RFU HLA-DPB1 (11760878_x_at) / Fold change /veh HLA-DPB1 (11760878_x_at) / RFU SPINT1 (11716480_a_at) / Fold change /veh SPINT1 (11716480_a_at) / RFU GAP43 (11754022_s_at) / Fold change /veh GAP43 (11754022_s_at) / RFU A4GNT (11735810_at) / Fold change /veh A4GNT (11735810_at) / RFU PRB3 (11715151_x_at) / Fold change /veh PRB3 (11715151_x_at) / RFU TUBB4B (11761932_at) / Fold change /veh TUBB4B (11761932_at) / RFU CAPN14 (11732068_a_at) / Fold change /veh CAPN14 (11732068_a_at) / RFU TMCC2 (11721928_a_at) / Fold change /veh TMCC2 (11721928_a_at) / RFU IRGQ (11745062_a_at) / Fold change /veh IRGQ (11745062_a_at) / RFU FAM174B (11720279_a_at) / Fold change /veh FAM174B (11720279_a_at) / RFU TMPRSS4 (11748680_a_at) / Fold change /veh TMPRSS4 (11748680_a_at) / RFU FAM212B (11763350_a_at) / Fold change /veh FAM212B (11763350_a_at) / RFU PLEKHG5 (11743358_a_at) / Fold change /veh PLEKHG5 (11743358_a_at) / RFU ZSCAN30 (11745921_a_at) / Fold change /veh ZSCAN30 (11745921_a_at) / RFU CMKLR1 (11741424_a_at) / Fold change /veh CMKLR1 (11741424_a_at) / RFU LOC101060620 /// MAPK8IP1 (11723275_at) / Fold change /veh LOC101060620 /// MAPK8IP1 (11723275_at) / RFU SPTSSB (11747773_x_at) / Fold change /veh SPTSSB (11747773_x_at) / RFU PRSS12 (11739890_at) / Fold change /veh PRSS12 (11739890_at) / RFU BIN1 (11741810_x_at) / Fold change /veh BIN1 (11741810_x_at) / RFU WNT11 (11732464_a_at) / Fold change /veh WNT11 (11732464_a_at) / RFU C10orf10 (11716521_a_at) / Fold change /veh C10orf10 (11716521_a_at) / RFU C5orf56 (11738089_at) / Fold change /veh C5orf56 (11738089_at) / RFU CYB561 (11721691_x_at) / Fold change /veh CYB561 (11721691_x_at) / RFU ANKRD19P (11752326_a_at) / Fold change /veh ANKRD19P (11752326_a_at) / RFU OR2T12 /// OR2T33 /// OR2T8 (11738714_s_at) / Fold change /veh OR2T12 /// OR2T33 /// OR2T8 (11738714_s_at) / RFU VCAN (11748164_a_at) / Fold change /veh VCAN (11748164_a_at) / RFU JSRP1 (11732532_at) / Fold change /veh JSRP1 (11732532_at) / RFU KRTAP10-11 (11738290_x_at) / Fold change /veh KRTAP10-11 (11738290_x_at) / RFU MYO3A (11730013_a_at) / Fold change /veh MYO3A (11730013_a_at) / RFU EBF3 (11725865_a_at) / Fold change /veh EBF3 (11725865_a_at) / RFU CAMK2N1 (11719241_x_at) / Fold change /veh CAMK2N1 (11719241_x_at) / RFU C5orf56 (11738088_a_at) / Fold change /veh C5orf56 (11738088_a_at) / RFU OLFML3 (11715873_a_at) / Fold change /veh OLFML3 (11715873_a_at) / RFU LOC100653217 /// NTM (11731650_a_at) / Fold change /veh LOC100653217 /// NTM (11731650_a_at) / RFU MAPK11 (11762145_a_at) / Fold change /veh MAPK11 (11762145_a_at) / RFU FIZ1 (11724087_x_at) / Fold change /veh FIZ1 (11724087_x_at) / RFU OASL (11726364_x_at) / Fold change /veh OASL (11726364_x_at) / RFU SOX15 (11748057_x_at) / Fold change /veh SOX15 (11748057_x_at) / RFU CD79A (11719716_a_at) / Fold change /veh CD79A (11719716_a_at) / RFU HIST1H1D (11736915_at) / Fold change /veh HIST1H1D (11736915_at) / RFU CASKIN2 (11723855_a_at) / Fold change /veh CASKIN2 (11723855_a_at) / RFU LOC730098 (11760151_x_at) / Fold change /veh LOC730098 (11760151_x_at) / RFU OR4N2 (11742367_at) / Fold change /veh OR4N2 (11742367_at) / RFU PRRT2 (11749266_a_at) / Fold change /veh PRRT2 (11749266_a_at) / RFU SNX32 (11753110_a_at) / Fold change /veh SNX32 (11753110_a_at) / RFU CDHR5 (11726645_a_at) / Fold change /veh CDHR5 (11726645_a_at) / RFU RCAN1 (11760418_a_at) / Fold change /veh RCAN1 (11760418_a_at) / RFU FAM167A (11723789_a_at) / Fold change /veh FAM167A (11723789_a_at) / RFU FAM26E (11764081_at) / Fold change /veh FAM26E (11764081_at) / RFU ISYNA1 (11749810_s_at) / Fold change /veh ISYNA1 (11749810_s_at) / RFU ACY1 (11761880_at) / Fold change /veh ACY1 (11761880_at) / RFU 11764098_at / Fold change /veh 11764098_at / RFU SAMD14 (11745864_x_at) / Fold change /veh SAMD14 (11745864_x_at) / RFU NPB (11741838_a_at) / Fold change /veh NPB (11741838_a_at) / RFU TMPRSS6 (11731388_a_at) / Fold change /veh TMPRSS6 (11731388_a_at) / RFU KRTAP10-2 (11738614_at) / Fold change /veh KRTAP10-2 (11738614_at) / RFU ARHGAP8 /// PRR5-ARHGAP8 (11727945_x_at) / Fold change /veh ARHGAP8 /// PRR5-ARHGAP8 (11727945_x_at) / RFU KRTAP5-7 /// NADSYN1 (11734609_at) / Fold change /veh KRTAP5-7 /// NADSYN1 (11734609_at) / RFU RASL12 (11751679_a_at) / Fold change /veh RASL12 (11751679_a_at) / RFU CDKN2B (11736163_a_at) / Fold change /veh CDKN2B (11736163_a_at) / RFU PRF1 (11729649_at) / Fold change /veh PRF1 (11729649_at) / RFU, ZNF638 /// ZNF638-IT1 / Fold change vs veh, ZNF638 /// ZNF638-IT1 / RFU, PANK3 / Fold change vs veh, PANK3 / RFU, SH3YL1 / Fold change vs veh, SH3YL1 / RFU, ZEB2 / Fold change vs veh, ZEB2 / RFU, NRIP1 / Fold change vs veh, NRIP1 / RFU, PTTG1IP / Fold change vs veh, PTTG1IP / RFU, CAPN2 / Fold change vs veh, CAPN2 / RFU, MED14 / Fold change vs veh, MED14 / RFU, SNORA58 / Fold change vs veh, SNORA58 / RFU, C1orf63 / Fold change vs veh, C1orf63 / RFU, LRRFIP1 / Fold change vs veh, LRRFIP1 / RFU, NDUFAF7 / Fold change vs veh, NDUFAF7 / RFU, SLC12A2 / Fold change vs veh, SLC12A2 / RFU, IBTK / Fold change vs veh, IBTK / RFU, ESF1 / Fold change vs veh, ESF1 / Fold change vs veh, TMEM50B / RFU, TAOK1 / Fold change vs veh, TAOK1 / RFU, ACBD3 / Fold change vs veh, ACBD3 / RFU, TMA16 / Fold change vs veh, TMA16 / RFU, RWDD3 / Fold change vs veh, RWDD3 / RFU, BCAT1 / Fold change vs veh, BCAT1 / RFU, EDEM3 / Fold change vs veh, EDEM3 / RFU, TMEM33 / Fold change vs veh, TMEM33 / RFU, WDR75 / Fold change vs veh, WDR75 / RFU, AHCTF1 / Fold change vs veh, AHCTF1 / RFU, TFRC / Fold change vs veh, TFRC / RFU, ZDHHC17 / Fold change vs veh, ZDHHC17 / RFU, NOM1 / Fold change vs veh, NOM1 / RFU, ARL8B / Fold change vs veh, ARL8B / RFU, ZBTB11 / Fold change vs veh, ZBTB11 / RFU, TAMM41 / Fold change vs veh, TAMM41 / RFU, KIAA1704 /// LOC100996395 / Fold change vs veh, KIAA1704 /// LOC100996395 / RFU, ING1 / Fold change vs veh, ING1 / RFU, TRMT61B / Fold change vs veh, TRMT61B / RFU, FUBP3 / Fold change vs veh, FUBP3 / RFU, TP53 / Fold change vs veh, TP53 / RFU, TNKS2 / Fold change vs veh, TNKS2 / RFU, ZFP14 / Fold change vs veh, ZFP14 / RFU, ACTR2 / Fold change vs veh, ACTR2 / RFU, PPP3R1 / Fold change vs veh, PPP3R1 / RFU, PIK3R1 / Fold change vs veh, PIK3R1 / RFU, HNRNPA1 / Fold change vs veh, HNRNPA1 / RFU, RNF170 / Fold change vs veh, RNF170 / RFU, ZNF28 / Fold change vs veh, ZNF28 / RFU, RNGTT / Fold change vs veh, RNGTT / RFU, OGT / Fold change vs veh, OGT / RFU, BRD1 / Fold change vs veh, BRD1 / RFU, MARS / Fold change vs veh, MARS / RFU, ZNF655 / Fold change vs veh, ZNF655 / RFU, FAHD1 / Fold change vs veh, FAHD1 / RFU, BDP1 / Fold change vs veh, BDP1 / RFU, LRRCC1 / Fold change vs veh, LRRCC1 / RFU, ARID1A / Fold change vs veh, ARID1A / RFU, ZNF146 / Fold change vs veh, ZNF146 / RFU, ZNF330 / Fold change vs veh, ZNF330 / RFU, GPN3 / Fold change vs veh, GPN3 / RFU, C9orf123 / Fold change vs veh, C9orf123 / RFU, N4BP2L2 / Fold change vs veh, N4BP2L2 / RFU, ARFIP1 / Fold change vs veh, ARFIP1 / RFU, FAM179B / Fold change vs veh, FAM179B / RFU, BCL10 / Fold change vs veh, BCL10 / RFU, UHRF1BP1L / Fold change vs veh, UHRF1BP1L / RFU, BET1 / Fold change vs veh, BET1 / RFU, CNOT2 / Fold change vs veh, CNOT2 / RFU, ZNF268 / Fold change vs veh, ZNF268 / Fold change vs veh, ZNF507 / RFU, DGCR2 / Fold change vs veh, DGCR2 / RFU, WDSUB1 / Fold change vs veh, WDSUB1 / Fold change vs veh, HSP90B1 /// MIR3652 / RFU, ADSS / Fold change vs veh, ADSS / RFU, GK / Fold change vs veh, GK / RFU, ZNF148 / Fold change vs veh, ZNF148 / RFU, TAF9 / Fold change vs veh, TAF9 / RFU, SLC1A5 / Fold change vs veh, SLC1A5 / RFU, SLMO2 / Fold change vs veh, SLMO2 / RFU, ABCC4 / Fold change vs veh, ABCC4 / RFU, LOC101060439 /// RAP1B / Fold change vs veh, LOC101060439 /// RAP1B / RFU, RFX7 / Fold change vs veh, RFX7 / RFU, GTPBP10 / Fold change vs veh, GTPBP10 / RFU, CNEP1R1 / Fold change vs veh, CNEP1R1 / RFU, BIVM-ERCC5 /// ERCC5 / Fold change vs veh, BIVM-ERCC5 /// ERCC5 / RFU, ILF3 / Fold change vs veh, ILF3 / RFU 11762660_at / Fold change /veh 11762660_at / RFU VCAN (11757783_s_at) / Fold change /veh VCAN (11757783_s_at) / RFU DDX43 (11728927_at) / Fold change /veh DDX43 (11728927_at) / RFU KRT8 (11758188_x_at) / Fold change /veh KRT8 (11758188_x_at) / RFU NKD1 (11759106_at) / Fold change /veh NKD1 (11759106_at) / RFU SRD5A1 (11742802_a_at) / Fold change /veh SRD5A1 (11742802_a_at) / RFU TPSAB1 /// TPSB2 (11721975_s_at) / Fold change /veh TPSAB1 /// TPSB2 (11721975_s_at) / RFU GSTM3 (11746129_a_at) / Fold change /veh GSTM3 (11746129_a_at) / RFU IL23R (11737362_x_at) / Fold change /veh IL23R (11737362_x_at) / RFU TMEM51 (11727254_a_at) / Fold change /veh TMEM51 (11727254_a_at) / RFU PIWIL2 (11732686_x_at) / Fold change /veh PIWIL2 (11732686_x_at) / RFU ORM1 (11744905_x_at) / Fold change /veh ORM1 (11744905_x_at) / RFU CCDC152 (11743942_at) / Fold change /veh CCDC152 (11743942_at) / RFU ECM1 (11717891_a_at) / Fold change /veh ECM1 (11717891_a_at) / RFU IL23R (11748794_a_at) / Fold change /veh IL23R (11748794_a_at) / RFU TNFAIP8L3 (11732012_x_at) / Fold change /veh TNFAIP8L3 (11732012_x_at) / RFU MBOAT4 (11741988_at) / Fold change /veh MBOAT4 (11741988_at) / RFU 11764193_at / Fold change /veh 11764193_at / RFU TMEM53 (11763286_at) / Fold change /veh TMEM53 (11763286_at) / RFU MAGEB2 (11727129_at) / Fold change /veh MAGEB2 (11727129_at) / RFU TMEM200A (11744735_a_at) / Fold change /veh TMEM200A (11744735_a_at) / RFU CCDC152 (11751479_a_at) / Fold change /veh CCDC152 (11751479_a_at) / RFU FAM211A (11726209_a_at) / Fold change /veh FAM211A (11726209_a_at) / RFU RGS16 (11746705_a_at) / Fold change /veh RGS16 (11746705_a_at) / RFU VCAN (11755009_s_at) / Fold change /veh VCAN (11755009_s_at) / RFU RHOB (11743442_s_at) / Fold change /veh RHOB (11743442_s_at) / RFU RGS16 (11720943_a_at) / Fold change /veh RGS16 (11720943_a_at) / RFU RGS16 (11720944_at) / Fold change /veh RGS16 (11720944_at) / RFU, VPS4B / Fold change vs veh, VPS4B / RFU, CREB1 / Fold change vs veh, CREB1 / RFU, DNAJC13 / Fold change vs veh, DNAJC13 / RFU, GNAQ / Fold change vs veh, GNAQ / RFU, CDK5R1 / Fold change vs veh, CDK5R1 / RFU, ZRANB3 / Fold change vs veh, ZRANB3 / RFU, CUL4A / Fold change vs veh, CUL4A / RFU, CCNY / Fold change vs veh, CCNY / RFU, UFL1 / Fold change vs veh, UFL1 / RFU, COG3 / Fold change vs veh, COG3 / RFU, DIAPH2 / Fold change vs veh, DIAPH2 / RFU, SKA2 / Fold change vs veh, SKA2 / RFU, AFF3 / Fold change vs veh, AFF3 / RFU, LMF1 / Fold change vs veh, LMF1 / RFU, IPO11 / Fold change vs veh, IPO11 / RFU, DFFB / Fold change vs veh, DFFB / RFU, FOXP1 / Fold change vs veh, FOXP1 / RFU, CARD8 / Fold change vs veh, CARD8 / RFU, STRN3 / Fold change vs veh, STRN3 / RFU, ADK / Fold change vs veh, ADK / RFU, RASSF2 / Fold change vs veh, RASSF2 / RFU, WIPF1 / Fold change vs veh, WIPF1 / RFU, LARP1B / Fold change vs veh, LARP1B / RFU, RASA1 / Fold change vs veh, RASA1 / RFU, RB1 / Fold change vs veh, RB1 / RFU, PPFIA1 / Fold change vs veh, PPFIA1 / RFU, MAT2A / Fold change vs veh, MAT2A / RFU, CCT5 / Fold change vs veh, CCT5 / RFU, WDR92 / Fold change vs veh, WDR92 / RFU, CUX1 / Fold change vs veh, CUX1 / RFU, TTC7A / Fold change vs veh, TTC7A / RFU, TMEM135 / Fold change vs veh, TMEM135 / RFU, DEPTOR / Fold change vs veh, DEPTOR / RFU, CPM / Fold change vs veh, CPM / RFU, DNAJB6 / Fold change vs veh, DNAJB6 / RFU, CACNA2D3 / Fold change vs veh, CACNA2D3 / RFU, DTX4 / Fold change vs veh, DTX4 / RFU, TFCP2 / Fold change vs veh, TFCP2 / RFU, GMCL1 /// GMCL1P1 / Fold change vs veh, GMCL1 /// GMCL1P1 / RFU, AEBP2 / Fold change vs veh, AEBP2 / RFU, SNHG1 /// SNORD22 /// SNORD25 /// SNORD26 /// SNORD27 /// SNORD28 /// SNORD29 /// SNORD31 / Fold change vs veh, SNHG1 /// SNORD22 /// SNORD25 /// SNORD26 /// SNORD27 /// SNORD28 /// SNORD29 /// SNORD31 / Fold change (Aza/veh), C12orf56 (ProbeSet 11735607_a_at) / Fold change (ACY-1035/veh), C12orf56 (ProbeSet 11735607_a_at) / Fold change (Aza/veh), FGFR1OP (ProbeSet 11751329_s_at) / Fold change (ACY-1035/veh), FGFR1OP (ProbeSet 11751329_s_at) / Fold change (Aza/veh), VPS36 (ProbeSet 11739960_a_at) / Fold change (ACY-1035/veh), VPS36 (ProbeSet 11739960_a_at) / RFU SYPL1 (11715823_x_at) / Fold change /veh SYPL1 (11715823_x_at) / RFU IGFBP7 (11715501_s_at) / Fold change /veh IGFBP7 (11715501_s_at) / RFU REEP3 (11722064_at) / Fold change /veh REEP3 (11722064_at) / RFU IGLL1 (11728026_x_at) / Fold change /veh IGLL1 (11728026_x_at): dose or concentration left out as unconfirmed. The settings on record: ProbeSet 11721969_s_at; LIST B.

As for `Nc1ncn([C@@H]2O[C@H](CO)[C@@H](O)[C@H]2O)c(=O)n1` [azacitidine], the “RFU, BDP1” value was determined as 496.27 RFU.
